According to US20080021107A1, “USE OF AMINO ACIDS FOR TREATMENT OF VARIOUS CONDITIONS” (UNIVERSITY OF ROCHESTER, priority 2002, published 2008):

Key:
[1] = Backonja et al. 1998; Rowbotham et al. 1998; cited from earlier work
[2] = tested on: hot flashes in post-menopausal women; experiment: Oral administration to patients experiencing hot flashes as symptoms of postmenopausal hormone variation; conditions: for side effects: human, in vivo, po
From the text: Administration of L-Norleucine to Patients Experiencing Hot Flashes as Symptoms of Postmenopausal Hormone Variation […]

palmar hyperhidrosis = conditions: L-methionine 1 g bid orally
[3] = high-dose oral L-methionine; van der Griend et al. 2002; cited from earlier work
[4] = tested on: hot flashes as a result of the post-partum state; conditions: L-methionine 1 g bid orally

| SMILES | patient withdrawal rate due to side effects (most often sleepiness and dizziness) [1] | tolerability ([2]; Example 1 Patient No. 1, gabapentin therapy for several days) | side effects (palmar hyperhidrosis) | reduction in the subjective severity of palmar hyperhidrosis (palmar hyperhidrosis; person, after 3 weeks) [%] | increase in serum homocysteine levels [3] [fold] | side effects [4] | improvement in hot flash frequency ([4]; person, 3 severe nighttime and 2 moderate daytime hot flashes per day, after three weeks) [%] | improvement in hot flash frequency ([2]; Patient No. 1, about 10 hot flashes per day, L-methionine 1 gram tid orally, after three weeks, benefit persisted for 3 months of therapy) [%] | change in symptoms ([2]; Patient No. 1, L-methionine 500 mg three times daily for two weeks) | improvement in hot flash frequency ([2]; Patient No. 2, about 15 hot flashes per day, L-methionine 1 g tid orally, after three weeks, benefit persisted for 5 months of therapy) [%] | improvement in nighttime hot flash frequency ([2]; Patient No. 3, about 7 hot flashes per day, L-methionine 500 mg tid orally, after three weeks) [%] | improvement in both nighttime and daytime hot flash severity ([2]; Patient No. 3, L-methionine 500 mg tid orally, after three weeks) [%] | side effects [2] | reduction in hot flashes ([2]; Example 4 Patient No. 1, 6 hot flashes/day at baseline, oral L-norleucine 1.5 grams 2x/day, starting 10 days after initiating, maintained for 3.5 months) [%] | reduction in hot flashes ([2]; Example 4 Patient No. 2, 8 hot flashes/day at baseline, oral L-norleucine 1 gram 2x/day, starting 4 days after initiating, maintained for 1.5 months) [%] |
| --- | --- | --- | --- | --- | --- | --- | --- | --- | --- | --- | --- | --- | --- | --- | --- |
| NCC1(CC(=O)O)CCCCC1 [gabapentin, Gabapentin, reference compound] | approximately 13% | unable to tolerate the drug due to severe dizziness |  |  |  |  |  |  |  |  |  |  |  |  |  |
| CSCC[C@H](N)C(=O)O [L-methionine] |  |  | No side effects | 50 | 10 | No side effects | 100 | 90 | without noticing an appreciable change | 90 | 66 | 50 | No side effects |  |  |
| CCCC[C@H](N)C(=O)O [L-norleucine] |  |  |  |  |  |  |  |  |  |  |  |  | No side effects | 70 | 87 |
